We go through four compounds from paper PMC6385087, “New Multitarget Hybrids Bearing Tacrine and Phenylbenzothiazole Motifs as Potential Drug Candidates for Alzheimer’s Disease” (Molecules, 2019).

Broadly, the IC50 is the midpoint of a concentration-inhibition curve. The term inhibition denotes the percentage by which the read-out fell short of the control.

Read-outs that look alike come from different tables or passages of the source.

One series concerns the target T1, AChE from electric eel (Electrophorus electricus, UniProt O42275).
T1 construct: commercially available enzyme AChE 500 U (extracted from electrophorus electricus); purchased type VI-S; host or cells: extracted from electric eel
In words: biochemical. The following applies: means of two experiments, read-out: Inhibition of AChE (IC50). The method, then:
The analytical grade reagents were purchased from Sigma-Aldrich (St. Louis, MO, USA) and Acros (Thermo Fisher Scientific, Geel, Belgium) and were used without any further purification. The organic solvents were dried and distilled according to standard methods described in literature. […] The Proton and Carbon-13 NMR were recorded either on Bruker AVANCE III-300 (300 MHz and 75.5 MHz) or Bruker AVANCE III-400 (400 MHz and 100.5 MHz) NMR spectrometers (Billerica, MA, USA) at 25 °C using peaks of solvents as internal standard. The chemical shift values of protons or carbons were measured on a δ scale and the coupling constant values (J) were determined in Hertz. In the NMR representation, abbreviations are mentioned as: singlet represented by s, doublet represented by d, triplet represented by t, multiplet represented by m, double doublet represented by dd, and broad singlet represented by brs. The Leica Galen III hot stage apparatus (Leica Microsystems, Wetzlar, Germany) was used for measuring the melting points of compounds. […] The AChE inhibitory activity was measured in a 1 cm path length quartz cell through a Perkin Elmer Lambda 35 spectrophotometer equipped with a temperature programmer PTP1+1 Peltier System (T = 25.0 ± 0.1 °C) (Waltham, MA, USA). Electrospray ionization-mass (ESI-MS) measurements were carried out on a LCQ Fleet mass spectrometer (Thermo Scientific, S. Jose, CA, USA) operated in the ESI positive and negative ion modes.
Modified Ellman’s method was used as described previously for the determination of AChE activity. The AChE stock solution was prepared by dissolving commercially available enzyme AChE 500 U (extracted from electrophorus electricus) in 10 mL of TRIS buffer (50 mM, pH 8). HEPES buffer was used for the dilution of the enzyme to give the final AChE concentration. The assay solution consisted of 374 μL of 4-(2-hydroxyethyl)-1-piperazineethanesulfonic acid (Hepes) buffer (50 mM, pH 8.0), 476 μL of 3 mM bis(3-carboxy-4-nitrophenyl)disulfide (DTNB), 25 μL of AChE (type VI-S, from electric eel) stock solution, a variable volume (10–50 μL) of the compound’s stock solution (1 mg/mL of MeOH), and the necessary amount of methanol to attain the same volume of sample mixture (0.925 mL) in a 1 mL cuvette. Samples were left to react for 15 min and then the reaction was monitored at wavelength of 405 nm for 5 min, after adding 75 μL of 16 mM acetylthiocholine iodide (AChI) solution. Assays were run with a blank containing all the components except AChE, which was replaced by HEPES buffer. The velocities of the reaction were calculated as well as the enzyme activity. A control reaction was carried out using the sample solvent (methanol) in the absence of any tested compound, and it was considered as 100% activity. […] The inhibition curves were obtained by plotting the percentage of enzymatic inhibition versus inhibitor concentration and a calibration curve was obtained from which the linear regression parameters were calculated.

For a further series, the target named is T2, Aβ1–42 self-aggregation (Homo sapiens, UniProt P05067).
T2 construct: Commercially available Aβ1-42 peptide was obtained from Aldrich; purchased Aldrich
In words: Aβ1–42 self-aggregation inhibition, thioflavin T fluorescence assay. The series is classed as biochemical. The following applies: for inhibition at 40 µM: read-out: Inhibition of Aβ-self-aggregation (%). How it is done: […]. Since the compounds of this series presented some solubility problems in methanol, the assays were performed with ligands at concentrations of 40 µM, i.e., half of the concentration usually used (80 µM) in these assays. […]. […] So, it appears that introduction of a chloro substituent in TAC and/or a hydroxyl group in the carbon linker are not well suited for the interaction with β-sheet secondary structure of Aβ aggregates. […].
Commercially available Aβ1-42 peptide was obtained from Aldrich and stored at −20 °C. It was treated with 1,1,1,3,3,3-hexafluoropropan-2-ol (HFIP) to avoid self-aggregation and reserved. HFIP pre-treated Aβ1–42 samples were re-dissolved in CH3CN/Na2CO3 (300 µM)/NaOH (250 µM) (48.3:48.3:4.3, v/v/v) solvent mixture in order to have a stable stock solution; this solution (500 µM) was further diluted in phosphate buffer (0.215 M, pH 8.0) to obtain 40 µM solution. The ligand, which was previously dissolved in methanol, was further diluted in phosphate buffer to a final concentration of 40 µM. Aβ1–42 aggregation was determined by measuring the fluorescence emission of Thioflavin T dye, with a Cary Eclipse Varian fluorimeter (Molecular Devices, San José, CA, USA).
After incubation for 24 h at 37 °C, without stirring, the samples were added to a 96-well plate (BD Falcon) with 180 µL of 5 µM ThT in 50 mM glycine-NaOH (pH 8.5) buffer. Blank samples were prepared for each concentration in a similar way, devoid of peptide. As for the control, a sample of the peptide was incubated under identical conditions but without the inhibitor. After 5-min incubation with the dye, the ThT fluorescence was measured at the following wavelengths: 446 nm (excitation) and 486 nm (emission). The percent inhibition of the self-induced aggregation due to the presence of the test compound was calculated by Equation (2), in which IFi and IF0 corresponded to the fluorescence intensities, in the presence and the absence of the test compound, minus the fluorescence intensities due to the respective blanks. I% = 100 − (IFi/IF0 × 100)(2)
The reported values were obtained as the mean ± S.E.M. of two different experiments.

The next series has as its system SH-SY5Y cells. Put plainly: Dose-response screening for non-toxic concentration, MTT reduction. The following applies: dose-response screening from 0.2 μM to 5 μM, 25 h. The series is classed as cell-based. How it is done:
The neuroprotective effect of TAC-PhBTA conjugates was evaluated using SH-SY5Y cells treated with Aβ1–42 peptides or ascorbate/iron. For each compound, a dose-response curve was performed to select a non-toxic concentration in order to analyze its neuroprotective effect (Figure 3).
SH-SY5Y human neuroblastoma cell line (ATCC-CRL-2266) grown in Dulbecco’s modified Eagle’s medium (DMEM) obtained from Gibco-Invitrogen (Life Technologies Ltd., Liverpool, UK) with 10% heat inactivated fetal calf serum, containing 50 U/mL penicillin, and 50 μg/mL streptomycin, under a humidified atmosphere of 95% air-5% CO2 at 37 °C. Cells were plated at 0.12 × 10^6 cells/mL for cell viability assay. […]. As a result we selected a 2.5 μM final concentration for compound 16; 0.5 μM final concentration for compound 17; 0.2 μM final concentration for compounds 14 and 15; and a 1 μM final concentration for compounds 19 and 18. […] The compounds were added to the cell media 1 h before the incubation with Aβ1–42 or ferrous sulfate/L-ascorbic acid. Aβ1–42 or ferrous sulfate/L-ascorbic acid where incubated alone or with the compound for an additional 24 h. Aβ1–42 was prepared as 276.9 μM stock in sterile water and added to the medium at 1 μM final concentration. Ferrous sulfate was freshly prepared as 0.36 M stock in water and added to the medium at 500 μM final concentration. L-Ascorbic Acid was freshly prepared as 80 mM stock in water and added to the medium at 5 mM final concentration. Aβ1–42 was purchased from Bachem (Torrance, CA, USA) and ferrous sulfate and L-ascorbic acid from Sigma Chemical Co (St. Louis, MO, USA).
Cell viability was determined by a MTT (3-(4,5-dimethylthiazol-2-yl)-2,5-diphenyltetrazolium bromide) reduction test. In viable cells, the enzyme succinate dehydrogenase metabolizes MTT into formazan that absorbs light at 570 nm. Following the cell treatment protocol the medium was aspirated and 0.5 mL MTT (0.5 mg/mL) was added to each well. The plate was then incubated at 37 °C for 1 h 30 min protected from light. At the end of the incubation period the formazan precipitates were solubilized with 0.5 mL of acidic isopropanol (0.04 M HCl/isopropanol). The absorbance was measured at 570 nm. Cell reduction ability was expressed as a percentage of untreated control cells.
(Tetrazolium dyes change colour on reduction, which living cells bring about.)

Setting [1] is: self-mediated Aβ42 aggregation, ThT fluorescence, CL = 40 μM, means of two experiments.

T1 sequence (O42275 24-633): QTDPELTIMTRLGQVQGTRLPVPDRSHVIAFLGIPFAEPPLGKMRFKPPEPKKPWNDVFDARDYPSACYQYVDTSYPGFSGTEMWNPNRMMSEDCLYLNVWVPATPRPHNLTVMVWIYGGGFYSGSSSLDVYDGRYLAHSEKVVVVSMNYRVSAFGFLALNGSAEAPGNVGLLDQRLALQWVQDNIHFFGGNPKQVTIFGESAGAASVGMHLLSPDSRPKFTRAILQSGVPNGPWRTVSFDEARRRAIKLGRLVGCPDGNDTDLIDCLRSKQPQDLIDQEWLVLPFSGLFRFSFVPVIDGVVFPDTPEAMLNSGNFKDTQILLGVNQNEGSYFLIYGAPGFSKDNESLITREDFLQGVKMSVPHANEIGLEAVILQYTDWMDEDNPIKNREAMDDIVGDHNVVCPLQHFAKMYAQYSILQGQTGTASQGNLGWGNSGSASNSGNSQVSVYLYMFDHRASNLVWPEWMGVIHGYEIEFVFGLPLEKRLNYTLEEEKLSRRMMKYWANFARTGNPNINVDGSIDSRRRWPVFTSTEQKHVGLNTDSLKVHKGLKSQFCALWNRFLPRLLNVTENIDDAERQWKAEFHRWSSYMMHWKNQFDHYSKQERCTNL
T2 sequence (P05067 672-713 limits assumed): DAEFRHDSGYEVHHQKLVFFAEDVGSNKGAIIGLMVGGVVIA

For `COc1cc(-c2nc3ccccc3s2)ccc1OCC(=O)NCCNc1c2c(nc3ccccc13)CCCC2` [compound 14, 2-(4-(Benzo[d]thiazol-2-yl)-2-methoxyphenoxy)-N-(2-((1,2,3,4-tetrahydroacridin-9-yl)amino)ethyl)acetamide], the IC50 on AChE from electric eel amounted to 110 nM. In addition, the inhibition at 40 µM at Aβ1–42 self-aggregation (setting [1]) came to 44.6%. The “Highest non-toxic concentration selected” value in the series with SH-SY5Y cells stood at 0.2 µM.

As for `Nc1c2c(nc3ccccc13)CCCC2` [TAC, tacrine], the inhibition at 80 µM at Aβ1–42 self-aggregation (read-out: Inhibition of Aβ self-aggregation (%)) was found to be 11%. Also, the inhibition at 40 µM at Aβ1–42 self-aggregation stood at 11%.

For `COc1cc(-c2nc3ccccc3s2)ccc1OCC(=O)NCCCNc1c2c(nc3cc(Cl)ccc13)CCCC2` [compound 17, 2-(4-(Benzo[d]thiazol-2-yl)-2-methoxyphenoxy)-N-(3-((6-chloro-1,2,3,4-tetrahydroacridin-9-yl)amino)propyl)acetamide], the IC50 at AChE from electric eel was 130 nM. The inhibition at 40 µM on Aβ1–42 self-aggregation (setting [1]) came to 32.5%. The “Highest non-toxic concentration selected” value with SH-SY5Y cells amounted to 0.5 µM.

Consider `COc1cc(-c2nc3ccccc3s2)ccc1OCC(=O)NCC(O)CNc1c2c(nc3ccccc13)CCCC2` (stereo not drawn) [compound 18, 2-(4-(Benzo[d]thiazol-2-yl)-2-methoxyphenoxy)-N-(2-hydroxy-3-((1,2,3,4-tetrahydroacridin-9-yl)amino)propyl)acetamide], for which, on AChE from electric eel, the IC50 was 270 nM. Moreover, the “Inhibition of Aβ-self-aggregation (%)” value on Aβ1–42 self-aggregation (self-mediated Aβ42 aggregation, ThT fluorescence, CL = 40 μM, means of two experiments, 40 µM) is recorded as 31.1%. The inhibition at 40 µM at Aβ1–42 self-aggregation (setting [1]) is roughly 31%. Also, the “Highest non-toxic concentration selected” value in the series on SH-SY5Y cells is 1 µM.
